These results are taken from ChEMBL document CHEMBL1154023, “Carbonic anhydrase inhibitors. Inhibition of the beta-class enzyme from the pathogenic yeast Candida glabrata with anions” (Bioorg Med Chem Lett, 2009).

The experiment addresses T1, Carbonic anhydrase (Candida glabrata CBS 138, UniProt Q6FTL6).
T1 sequence (Q6FTL6 whole entry): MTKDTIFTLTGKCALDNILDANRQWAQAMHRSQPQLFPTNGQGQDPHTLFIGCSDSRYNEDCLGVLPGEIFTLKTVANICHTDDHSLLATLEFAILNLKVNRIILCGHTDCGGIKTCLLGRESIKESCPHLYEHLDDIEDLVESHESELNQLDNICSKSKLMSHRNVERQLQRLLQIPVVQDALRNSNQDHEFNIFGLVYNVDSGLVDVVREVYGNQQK
Kind of experiment: Inhibition of Candida glabrata carbonic anhydrase by stopped flow CO2 hydration assay. Also on record: species or system Nakaseomyces glabratus.

As usually defined, the Ki is a measure of affinity in units of concentration, obtained from inhibition or displacement. `NS(=O)(=O)O` [SODIUM SULFAMATE] returned a Ki of 110 µM.
With `OB(O)c1ccccc1` [PHENYLBORONIC ACID] the figure was 100 µM; with `NS(N)(=O)=O` [SULFAMIDE], 420 µM.
